Laboratory results taken from patent US10214519B2, “Phosphatidylinositol 3-kinase inhibitors” (Gilead Sciences, Inc., priority 2016, dated 2019).

Target: PI3Kβ (Homo sapiens (Human), UniProt P42338)
Assay: PI3K isoform TR-FRET enzymatic assay (PI3Kβ)
Type: biochemical
Settings: 2× Km ATP, 30 minutes at 25° C.
Method in brief: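 Heterodimeric recombinant PI3Kβ was incubated with compound 30 minutes at 25° C. Product was detected by TR-FRET competition with 10 nM labeled PIP3 for 35 nM Eu-GRP-1 PH domain after EDTA stop. Data were normalized to 1 μM wortmannin and DMSO, and IC50 was taken from a four-parameter fit.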

Chain of PI3Kβ (P42338 whole entry, canonical isoform): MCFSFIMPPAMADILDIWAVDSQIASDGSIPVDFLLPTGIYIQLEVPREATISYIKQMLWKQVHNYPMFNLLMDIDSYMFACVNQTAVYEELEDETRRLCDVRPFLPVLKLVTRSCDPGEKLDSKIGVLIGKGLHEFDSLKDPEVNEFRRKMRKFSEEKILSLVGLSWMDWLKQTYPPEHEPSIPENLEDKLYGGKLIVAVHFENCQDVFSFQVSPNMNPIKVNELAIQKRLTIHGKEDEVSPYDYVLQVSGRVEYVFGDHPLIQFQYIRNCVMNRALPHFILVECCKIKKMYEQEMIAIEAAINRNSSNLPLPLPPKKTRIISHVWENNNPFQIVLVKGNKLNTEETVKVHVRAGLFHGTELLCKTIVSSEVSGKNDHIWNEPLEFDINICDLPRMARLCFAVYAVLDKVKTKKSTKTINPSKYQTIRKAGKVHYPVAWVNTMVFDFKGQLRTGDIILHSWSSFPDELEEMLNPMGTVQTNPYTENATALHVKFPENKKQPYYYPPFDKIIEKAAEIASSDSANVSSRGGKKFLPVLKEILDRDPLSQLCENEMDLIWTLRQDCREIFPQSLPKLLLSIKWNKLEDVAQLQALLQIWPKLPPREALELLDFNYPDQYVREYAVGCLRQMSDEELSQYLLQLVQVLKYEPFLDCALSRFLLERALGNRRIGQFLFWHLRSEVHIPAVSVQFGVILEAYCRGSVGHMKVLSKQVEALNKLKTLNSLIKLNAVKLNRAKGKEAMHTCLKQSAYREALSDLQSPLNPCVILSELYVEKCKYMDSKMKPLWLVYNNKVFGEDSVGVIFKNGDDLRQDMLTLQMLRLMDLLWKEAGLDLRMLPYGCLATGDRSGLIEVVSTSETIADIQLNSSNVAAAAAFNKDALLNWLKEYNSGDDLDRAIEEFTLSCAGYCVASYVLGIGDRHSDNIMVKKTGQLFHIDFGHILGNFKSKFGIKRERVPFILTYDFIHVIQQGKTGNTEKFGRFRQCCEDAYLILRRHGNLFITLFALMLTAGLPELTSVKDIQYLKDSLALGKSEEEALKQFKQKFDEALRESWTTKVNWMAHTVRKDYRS
Chain of PI3Kβ (P27986 whole entry partner, canonical isoform): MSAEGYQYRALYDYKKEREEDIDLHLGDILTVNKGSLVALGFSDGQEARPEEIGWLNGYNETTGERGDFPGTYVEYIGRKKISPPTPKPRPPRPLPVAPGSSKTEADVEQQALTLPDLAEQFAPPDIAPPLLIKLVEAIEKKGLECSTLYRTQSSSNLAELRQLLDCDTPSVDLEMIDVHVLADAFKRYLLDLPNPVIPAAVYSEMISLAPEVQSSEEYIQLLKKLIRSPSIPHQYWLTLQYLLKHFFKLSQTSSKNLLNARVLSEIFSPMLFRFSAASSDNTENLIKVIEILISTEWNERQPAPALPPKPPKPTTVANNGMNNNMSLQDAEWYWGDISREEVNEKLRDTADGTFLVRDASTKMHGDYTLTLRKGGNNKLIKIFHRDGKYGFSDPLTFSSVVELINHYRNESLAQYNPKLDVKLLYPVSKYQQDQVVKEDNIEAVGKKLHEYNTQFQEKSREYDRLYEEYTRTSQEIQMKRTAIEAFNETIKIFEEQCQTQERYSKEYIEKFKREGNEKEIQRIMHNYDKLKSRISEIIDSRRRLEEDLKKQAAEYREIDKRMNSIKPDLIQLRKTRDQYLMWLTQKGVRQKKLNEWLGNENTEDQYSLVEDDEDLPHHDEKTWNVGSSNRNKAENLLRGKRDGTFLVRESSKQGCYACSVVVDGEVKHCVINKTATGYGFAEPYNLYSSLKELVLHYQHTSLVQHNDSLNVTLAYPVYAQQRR

An IC50 of 860 nM was found for `N#Cc1ncc(-c2cc(N3CCOCC3)cc3c2ncn3-c2ccnc3c(F)ccc(F)c23)[nH]1` [Compound 394, 5-(1-(5,8-Difluoroquinolin-4-yl)-6-morpholino-1H-benzo[d]imidazol-4-yl)-1H-imidazole-2-carbonitrile] in this work.
An IC50 of 46 nM was found for `Cc1nnc(-c2cc(N3CCOCC3)cc3c2nc(C)n3-c2ccnc3c(C(F)F)cccc23)[nH]1` [Example 92, 4-[3-[8-(difluoromethyl)quinolin-4-yl]-2-methyl-7-(5-methyl-4H-1,2,4-triazol-3-yl)benzimidazol-5-yl]morpholine] in this work.
An IC50 of 11 nM was found for `Cc1nc2c(-c3nnc[nH]3)cc(N3CCOCC3)cc2n1-c1ccnc2cccc(F)c12` [Example 81, 4-[3-(5-fluoroquinolin-4-yl)-2-methyl-7-(4H-1,2,4-triazol-3-yl)benzimidazol-5-yl]morpholine] in this work.
An IC50 of 420 nM was found for `Cc1nc2c(-c3cncs3)cc(N3CCOCC3)cc2n1-c1ccnc2c(Cl)cccc12` [Example 276, 4-[3-(8-chloroquinolin-4-yl)-2-methyl-7-(1,3-thiazol-5-yl)benzimidazol-5-yl]morpholine] in this work.
An IC50 of 290 nM was found for `Cc1nnc(-c2cc(N3CCOCC3)cc3c2nc(C)n3-c2ccnc3cccc(C)c23)[nH]1` [Example 93, 4-[2-methyl-3-(5-methylquinolin-4-yl)-7-(5-methyl-4H-1,2,4-triazol-3-yl)benzimidazol-5-yl]morpholine] in this work.
An IC50 of 99 nM was found for `Cc1nc2c(-c3nnc[nH]3)cc(N3CCOCC3)cc2n1-c1cc(C#N)nc2ccccc12` [Example 67, 4-[2-methyl-6-morpholin-4-yl-4-(4H-1,2,4-triazol-3-yl)benzimidazol-1-yl]quinoline-2-carbonitrile] in this work.
An IC50 of 24 nM was found for `CCc1nc2c(-c3cnc[nH]3)cc(N3CCOCC3)cc2n1-c1cc(C)nc2c(Cl)ccc(Cl)c12` [Example 334, 4-[3-(5,8-dichloro-2-methylquinolin-4-yl)-2-ethyl-7-(1H-imidazol-5-yl)benzimidazol-5-yl]morpholine] in this work.
An IC50 of 16 nM was found for `Cc1nc2c(-c3nnc[nH]3)cc(N3CCOCC3)cc2n1-c1c(C2CC2)cnc2ccccc12` [Example 66, 4-[3-(3-cyclopropylquinolin-4-yl)-2-methyl-7-(4H-1,2,4-triazol-3-yl)benzimidazol-5-yl]morpholine] in this work.
An IC50 of 29 nM was found for `CCc1nc2ccccc2c(-n2c(C)nc3c(-c4nc(C)n[nH]4)cc(N4CCOCC4)cc32)c1C` [Example 76, 4-[3-(2-ethyl-3-methylquinolin-4-yl)-2-methyl-7-(3-methyl-1H-1,2,4-triazol-5-yl)benzimidazol-5-yl]morpholine] in this work.
An IC50 of 5600 nM was found for `Cc1nnc(-c2cc(N3CCOCC3)cc3c2nc(C)n3-c2c(Cl)cnc3c(Cl)cccc23)[nH]1` (atropisomer, axis not shown) [Compound 367, 4-(1-(3,8-dichloroquinolin-4-yl)-2-methyl-4-(5-methyl-4H-1,2,4-triazol-3-yl)-1H-benzo[d]imidazol-6-yl)morpholine] in this work.
An IC50 of 12 nM was found for `Cc1nc2c(-c3nnc[nH]3)cc(N3CCOCC3)cc2n1-c1cc(-c2cn[nH]c2)nc2ccccc12` [Example 167, 4-(1-(2-(1H-pyrazol-4-yl)quinolin-4-yl)-2-methyl-4-(4H-1,2,4-triazol-3-yl)-1H-benzo[d]imidazol-6-yl)morpholine 2,2,2-trifluoroacetate] in this work.
An IC50 of 40 nM was found for `CCc1nc2c(-c3cnc(C)[nH]3)cc(N3CCOCC3)cc2n1-c1ccnc2c(F)ccc(F)c12` [Example 206, 4-[3-(5,8-difluoroquinolin-4-yl)-2-ethyl-7-(2-methyl-1H-imidazol-5-yl)benzimidazol-5-yl]morpholine] in this work.
An IC50 of 1200 nM was found for `Cc1nc2c(-c3nnc(Cl)[nH]3)cc(N3CCOCC3)cc2n1-c1ccnc2c(Cl)cccc12` (atropisomer, axis not shown) [Compound 359, 4-[3-(8-chloroquinolin-4-yl)-7-(5-chloro-4H-1,2,4-triazol-3-yl)-2-methylbenzimidazol-5-yl]morpholine] in this work.
An IC50 of 47 nM was found for `Cc1nc2c(-c3ccccc3)cc(N3CCOCC3)cc2n1-c1ccnc2c(Cl)cccc12` [Example 311, 4-(1-(8-chloroquinolin-4-yl)-2-methyl-4-phenyl-1H-benzo[d]imidazol-6-yl)morpholine] in this work.
An IC50 of 480 nM was found for `Cc1nc2c(-c3n[nH]c(=O)o3)cc(N3CCOCC3)cc2n1-c1ccnc2cc(F)ccc12` [Example 166, 5-(1-(7-fluoroquinolin-4-yl)-2-methyl-6-morpholino-1H-benzo[d]imidazol-4-yl)-1,3,4-oxadiazol-2(3H)-one] in this work.
An IC50 of 120 nM was found for `Cc1nc2c(-c3nnc[nH]3)cc(N3CCOCC3)cc2n1-c1c(F)cnc2ccccc12` [Example 153, 4-(1-(3-fluoroquinolin-4-yl)-2-methyl-4-(4H-1,2,4-triazol-3-yl)-1H-benzo[d]imidazol-6-yl)morpholine] in this work.
An IC50 of 27 nM was found for `Cc1n[nH]c(-c2cc(N3CCOCC3)cc3c2nc(C)n3-c2c(C)cnc3c(Cl)cccc23)n1` [Example 78, 4-[3-(8-chloro-3-methylquinolin-4-yl)-2-methyl-7-(3-methyl-1H-1,2,4-triazol-5-yl)benzimidazol-5-yl]morpholine] in this work.
An IC50 of 5 nM was found for `Cc1nc2c(-c3nnc[nH]3)cc(N3CCOCC3)cc2n1-c1ccnc2c(F)ccc(Cl)c12` (atropisomer, axis not shown) [Compound 344, 4-[3-(5-chloro-8-fluoroquinolin-4-yl)-2-methyl-7-(4H-1,2,4-triazol-3-yl)benzimidazol-5-yl]morpholine] in this work.
An IC50 of 45 nM was found for `Cc1nnc(-c2cc(N3CCOCC3)cc3c2nc(C2CCC2)n3-c2ccnc3c(Cl)cccc23)[nH]1` [Example 13, 4-(1-(8-chloroquinolin-4-yl)-2-cyclobutyl-4-(5-methyl-4H-1,2,4-triazol-3-yl)-1H-benzo[d]imidazol-6-yl)morpholine] in this work.
An IC50 of 24 nM was found for `c1ccc2c(-n3cnc4c(-c5nnc[nH]5)cc(N5CCOCC5)cc43)cc(-c3cn[nH]c3)nc2c1` [Example 381, 4-(1-(2-(1H-pyrazol-4-yl)quinolin-4-yl)-4-(4H-1,2,4-triazol-3-yl)-1H-benzo[d]imidazol-6-yl)morpholine] in this work.
An IC50 of 7 nM was found for `CCc1nc2c(-c3c[nH]cn3)cc(N3CCOCC3)cc2n1-c1ccnc2c(Cl)cccc12` [Example 331, 4-[3-(8-chloroquinolin-4-yl)-2-ethyl-7-(1H-imidazol-4-yl)benzimidazol-5-yl]morpholine] in this work.
With `Cc1nc2c(-c3ccncc3)cc(N3CCOCC3)cc2n1-c1ccnc2c(-c3ccncc3)cccc12` [Example 320, 4-[2-methyl-7-pyridin-4-yl-3-(8-pyridin-4-ylquinolin-4-yl)benzimidazol-5-yl]morpholine] the IC50 was > 10000 nM.
An IC50 of 8 nM was found for `Cc1cnc2c(Cl)cccc2c1-n1c(C)nc2c(-c3nnc[nH]3)cc(N3CCOCC3)cc21` [Example 68, 4-[3-(8-chloro-3-methylquinolin-4-yl)-2-methyl-7-(4H-1,2,4-triazol-3-yl)benzimidazol-5-yl]morpholine] in this work.
An IC50 of 10 nM was found for `CCc1nc2c(-c3cnc(Cl)[nH]3)cc(N3CCOCC3)cc2n1-c1ccnc2c(Cl)cccc12` [Example 279, 4-[7-(2-chloro-1H-imidazol-5-yl)-3-(8-chloroquinolin-4-yl)-2-ethylbenzimidazol-5-yl]morpholine] in this work.
An IC50 of 35 nM was found for `Cc1nc2c(-c3cnn[nH]3)cc(N3CCOCC3)cc2n1-c1ccnc2c(F)ccc(F)c12` [Example 377, 4-(1-(5,8-difluoroquinolin-4-yl)-2-methyl-4-(1H-1,2,3-triazol-5-yl)-1H-benzo[d]imidazol-6-yl)morpholine] in this work.
